Results on 22 compounds are retold here after patent publication US20230416258A1, “BENZ[…], AND PREPARATION METHOD THEREFOR AND USE THEREOF” (CHINA PHARMACEUTICAL UNIVERSITY, priority 2020, published 2023).

Molecules are shown by their SMILES.

The first assay has as its system KM mice. Nature of the assay: Test for drug-induced disappearance of righting reflex in mice. It is filed as in vivo. The conditions noted are these: 30 mg/kg, single rapid bolus via tail vein. The source says:
In anesthetic drug experiments, latency generally refers to the time from the start of administration to the loss of consciousness of the subject. The shorter latency is preferred, indicating a rapid onset of action after administration. The duration of anesthesia generally refers to the duration of time from the loss of consciousness to the restoration of consciousness of the subject. The duration of the drug will vary from animal model to animal species. Too long anesthesia may produce adverse cardiovascular and respiratory responses, such as adverse neurological effects to the subject, including sleepiness and dizziness; meanwhile, too short duration of anesthesia may affect the anesthesia effect, causing problems such as increase of anesthesia dosage during the operation.
KM mice (female, 18-25 g) were randomly grouped and subjected to a single administration by rapid bolus via the tail vein. The latency and duration of disappearance of righting reflex in the mice were recorded.
`COC(=O)CC[C@@H]1N=C(c2ccccc2F)c2cc(Cl)ccc2-n2c(SC3CCN(C)CC3)nnc21` [Compound 63, methyl (S)-3-(8-chloro-6-(2-fluorophenyl)-1-((1-methylpiperidin-4-yl)thio)-4H-benzo[f][1,2,4]triazolo[4,3-a][1,4]diazepin-4-yl)propionate] had a Duration of 15.25 min and a Latency of 1.23 min.

Turning to `COC(=O)CC[C@@H]1N=C(c2ccccc2F)c2cc([N+](=O)[O-])ccc2-n2c(SC3CCN(C)CC3)nnc21` [Compound 65, methyl (S)-3-(8-nitro-6-(2-fluorophenyl)-1-((1-methylpiperidin-4-yl)thio)-4H-benzo[f][1,2,4]triazolo[4,3-a][1,4]diazepin-4-yl)propionate], the Duration was found to be 17.25 min and the Latency worked out at 1.74 min.

`COC(=O)CC[C@@H]1N=C(c2ccccc2F)c2cc(Br)ccc2-n2c(SCCCN3CCN(CCO)CC3)nnc21` [Compound 67, methyl (S)-3-(8-bromo-6-(2-fluorophenyl)-1-((3-(4-(2-hydroxyethyl)piperazin-1-yl)propyl)thio)-4H-benzo[f][1,2,4]triazolo[4,3-a][1,4]diazepin-4-yl)propionate] yielded a Duration of 11.37 min and a Latency of 0.84 min.

`COC(=O)CC[C@@H]1N=C(c2ccccc2F)c2cc(Cl)ccc2-n2c(SCN3CCOCC3)nnc21` [Compound 69, methyl (S)-3-(8-chloro-6-(2-fluorophenyl)-1-((morpholinomethyl)thio)-4H-benzo[f][1,2,4]triazolo[4,3-a][1,4]diazepin-4-yl)propionate] yielded a Duration of 21.61 min and a Latency of 0.90 min.

As for `COC(=O)CC[C@@H]1N=C(c2ccccc2F)c2cc(Br)ccc2-n2c(SCN3CCOCC3)nnc21` [Compound 70, methyl (S)-3-(8-bromo-6-(2-fluorophenyl)-1-((morpholinomethyl)thio)-4H-benzo[f][1,2,4]triazolo[4,3-a][1,4]diazepin-4-yl)propionate], the Duration is 18.61 min and the Latency came out at 1.01 min.

On to `COC(=O)CC[C@@H]1N=C(c2ccccc2F)c2cc(Cl)ccc2-n2c(SCN3CCN(c4ccccc4)CC3)nnc21` [Compound 72, methyl (S)-3-(8-chloro-6-(2-fluorophenyl)-1-(((4-phenylpiperazin-1-yl)methyl)thio)-4H-benzo[f][1,2,4]triazolo[4,3-a][1,4]diazepin-4-yl)propionate], for which the Duration is on record as 13.12 min and the Latency came out at 0.42 min.

As for `COC(=O)CC[C@@H]1N=C(c2ccccc2F)c2cc(Br)ccc2-n2c(SCN3CCN(c4ccccc4)CC3)nnc21` [Compound 73, methyl (S)-3-(8-bromo-6-(2-fluorophenyl)-1-(((4-phenylpiperazin-1-yl)methyl)thio)-4H-benzo[f][1,2,4]triazolo[4,3-a][1,4]diazepin-4-yl)propionate], the Duration came out at 12.12 min and the Latency was determined as 0.86 min.

In turn, `COC(=O)CC[C@@H]1N=C(c2ccccc2F)c2cc([N+](=O)[O-])ccc2-n2c(SCN3CCN(c4ccccc4)CC3)nnc21` [Compound 74, methyl (S)-3-(8-nitro-6-(2-fluorophenyl)-1-(((4-phenylpiperazin-1-yl)methyl)thio)-4H-benzo[f][1,2,4]triazolo[4,3-a][1,4]diazepin-4-yl)propionate] registered a Duration of 6.16 min and a Latency of 0.47 min.

For `COC(=O)CC[C@@H]1N=C(c2ccccc2Cl)c2cc(Cl)ccc2-n2c(SCC3CC3)nnc21` [Compound 75, methyl (S)-3-(8-chloro-6-(2-chlorophenyl)-1-((cyclopropylmethyl)thio)-4H-benzo[f][1,2,4]triazolo[4,3-a][1,4]diazepin-4-yl)propionate], the Duration is on record as 6.53 min and the Latency is given as 0.51 min.

In the case of `COC(=O)CC[C@@H]1N=C(c2ccccc2Cl)c2cc(Br)ccc2-n2c(SCC3CC3)nnc21` [Compound 76, methyl (S)-3-(8-bromo-6-(2-chlorophenyl)-1-((cyclopropylmethyl)thio)-4H-benzo[f][1,2,4]triazolo[4,3-a][1,4]diazepin-4-yl)propionate], the Duration worked out at 5.65 min and the Latency worked out at 0.76 min.

Take `COC(=O)CC[C@@H]1N=C(c2ccccc2Cl)c2cc([N+](=O)[O-])ccc2-n2c(SCC3CC3)nnc21` [Compound 77, methyl (S)-3-(8-nitro-6-(2-chlorophenyl)-1-((cyclopropylmethyl)thio)-4H-benzo[f][1,2,4]triazolo[4,3-a][1,4]diazepin-4-yl)propionate]: the Duration is on record as 5.69 min and the Latency came out at 0.38 min.

`C#CCSc1nnc2n1-c1ccc(Cl)cc1C(c1ccccc1Cl)=N[C@H]2CCC(=O)OC` [Compound 78, methyl (S)-3-(8-chloro-6-(2-chlorophenyl)-1-(prop-2-yn-1-ylthio)-4H-benzo[f][1,2,4]triazolo[4,3-a][1,4]diazepin-4-yl)propionate] showed a Duration of 12.67 min and a Latency of 1.05 min.

Regarding `C#CCSc1nnc2n1-c1ccc(Br)cc1C(c1ccccc1Cl)=N[C@H]2CCC(=O)OC` [Compound 79, methyl (S)-3-(8-bromo-6-(2-chlorophenyl)-1-(prop-2-yn-1-ylthio)-4H-benzo[f][1,2,4]triazolo[4,3-a][1,4]diazepin-4-yl)propionate], the Duration was determined as 6.93 min and the Latency came out at 0.57 min.

On to `CCN(CC)CCSc1nnc2n1-c1ccc(Cl)cc1C(c1ccccc1Cl)=N[C@H]2CCC(=O)OC` [Compound 84, methyl (S)-3-(8-chloro-6-(2-chlorophenyl)-1-((2-(diethylamino)ethyl)thio)-4H-benzo[f][1,2,4]triazolo[4,3-a][1,4]diazepin-4-yl)propionate], for which the Duration stood at 21.9 min and the Latency is given as 0.31 min.

In turn, `CCN(CC)CCSc1nnc2n1-c1ccc([N+](=O)[O-])cc1C(c1ccccc1Cl)=N[C@H]2CCC(=O)OC` [Compound 86, methyl (S)-3-(8-nitro-6-(2-chlorophenyl)-1-((2-(diethylamino)ethyl)thio)-4H-benzo[f][1,2,4]triazolo[4,3-a][1,4]diazepin-4-yl)propionate] gave a Duration of 18.62 min and a Latency of 0.62 min.

Still in this assay, the particulars now being: 60 mg/kg, single rapid bolus via tail vein.
Compound `COC(=O)CC[C@@H]1N=C(c2ccccc2F)c2cc(Br)ccc2-n2c(SC3CCN(C)CC3)nnc21` [Compound 64, methyl (S)-3-(8-bromo-6-(2-fluorophenyl)-1-((1-methylpiperidin-4-yl)thio)-4H-benzo[f][1,2,4]triazolo[4,3-a][1,4]diazepin-4-yl)propionate] yielded a Duration of 14.27 min and a Latency of 0.99 min.

`COC(=O)CC[C@@H]1N=C(c2ccccc2F)c2cc(Cl)ccc2-n2c(SCCCN3CCN(CCO)CC3)nnc21` [Compound 66, methyl (S)-3-(8-chloro-6-(2-fluorophenyl)-1-((3-(4-(2-hydroxyethyl)piperazin-1-yl)propyl)thio)-4H-benzo[f][1,2,4]triazolo[4,3-a][1,4]diazepin-4-yl)propionate]: the Duration is recorded as 4.27 min and the Latency was 0.89 min.

Compound `COC(=O)CC[C@@H]1N=C(c2ccccc2F)c2cc([N+](=O)[O-])ccc2-n2c(SCCCN3CCN(CCO)CC3)nnc21` [Compound 68, methyl (S)-3-(8-nitro-6-(2-fluorophenyl)-1-((3-(4-(2-hydroxyethyl)piperazin-1-yl)propyl)thio)-4H-benzo[f][1,2,4]triazolo[4,3-a][1,4]diazepin-4-yl)propionate] registered a Duration of 15.02 min and a Latency of 0.68 min.

On to `COC(=O)CC[C@@H]1N=C(c2ccccc2F)c2cc([N+](=O)[O-])ccc2-n2c(SCN3CCOCC3)nnc21` [Compound 71, methyl (S)-3-(8-nitro-6-(2-fluorophenyl)-1-((morpholinomethyl)thio)-4H-benzo[f][1,2,4]triazolo[4,3-a][1,4]diazepin-4-yl)propionate], for which the Duration amounted to 12.10 min and the Latency was determined as 0.56 min.

`COC(=O)CC[C@@H]1N=C(c2ccccc2F)c2cc(Cl)ccc2-n2c(SCN3CCN(c4ccccc4)CC3)nnc21` [Compound 72, methyl (S)-3-(8-chloro-6-(2-fluorophenyl)-1-(((4-phenylpiperazin-1-yl)methyl)thio)-4H-benzo[f][1,2,4]triazolo[4,3-a][1,4]diazepin-4-yl)propionate] gave a Duration of 10.67 min and a Latency of 1.52 min.

For `C#CCSc1nnc2n1-c1ccc([N+](=O)[O-])cc1C(c1ccccc1Cl)=N[C@H]2CCC(=O)OC` [Compound 80, methyl (S)-3-(8-nitro-6-(2-chlorophenyl)-1-(prop-2-yn-1-ylthio)-4H-benzo[f][1,2,4]triazolo[4,3-a][1,4]diazepin-4-yl)propionate], the Duration is 13.57 min and the Latency is on record as 0.86 min.

Consider `COC(=O)CC[C@@H]1N=C(c2ccccc2Cl)c2cc(Cl)ccc2-n2c(SCCN3CCOCC3)nnc21` [Compound 81, methyl (S)-3-(8-chloro-6-(2-chlorophenyl)-1-((2-morpholinoethyl)thio)-4H-benzo[f][1,2,4]triazolo[4,3-a][1,4]diazepin-4-yl)propionate], for which the Duration is recorded as 6.41 min and the Latency turned out to be 0.21 min.

For `CCN(CC)CCSc1nnc2n1-c1ccc(Br)cc1C(c1ccccc1Cl)=N[C@H]2CCC(=O)OC` [Compound 85, methyl (S)-3-(8-bromo-6-(2-chlorophenyl)-1-((2-(diethylamino)ethyl)thio)-4H-benzo[f][1,2,4]triazolo[4,3-a][1,4]diazepin-4-yl)propionate], the Duration came out at 13.12 min and the Latency came out at 0.67 min.

The same assay, now with this note: 100 mg/kg, single rapid bolus via tail vein.
On to `COC(=O)CC[C@@H]1N=C(c2ccccc2Cl)c2cc(Cl)ccc2-n2c(SCCN3CCOCC3)nnc21` [Compound 81, methyl (S)-3-(8-chloro-6-(2-chlorophenyl)-1-((2-morpholinoethyl)thio)-4H-benzo[f][1,2,4]triazolo[4,3-a][1,4]diazepin-4-yl)propionate], for which the Duration is recorded as 12.38 min and the Latency was 0.22 min.
